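A five-concentration, 48-hour dose response in 96-well plates underlies each endpoint, interpolated linearly between surrounding concentrations. GI50 marks 50% less growth.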 Active and inactive are the calls of the source. Rule as the data show it: active = GI50 up to about 1.1 µM and inactive = higher.
Key:
Experiment in all cases: NCI anticancer screen, dose series, 48 h
SK-MEL-2 = tested on: SK-MEL-2
SF-268 = tested on: SF-268
RPMI-8226 = tested on: RPMI-8226
A498 = tested on: A498
Malme-3M = tested on: Malme-3M
HCT-116 = tested on: HCT-116
A549 = tested on: A549
HOP-62 = tested on: HOP-62
SR = tested on: SR
SF-295 = tested on: SF-295
CCRF-CEM = tested on: CCRF-CEM
UACC-62 = tested on: UACC-62
786-0 = tested on: 786-0
LOX IMVI = tested on: LOX IMVI
SN12C = tested on: SN12C
NCI-H23 = tested on: NCI-H23
OVCAR-3 = tested on: OVCAR-3
NCI-H226 = tested on: NCI-H226

Structure (SMILES)	GI50 (SK-MEL-2)	GI50 (SF-268)	GI50 (RPMI-8226)	GI50 (A498)	GI50 (Malme-3M)	GI50 (HCT-116)	GI50 (A549)	GI50 (HOP-62)	GI50 (SR)	GI50 (SF-295)	GI50 (CCRF-CEM)	GI50 (UACC-62)	GI50 (786-0)	GI50 (LOX IMVI)	GI50 (SN12C)	GI50 (NCI-H23)	GI50 (OVCAR-3)	GI50 (NCI-H226)
O=C(O)c1ccc([N+](=O)[O-])c2c(=O)c3ccccc3[nH]c12	> 100 µM (inactive)	> 100 µM (inactive)	> 100 µM (inactive)	> 100 µM (inactive)	> 100 µM (inactive)	> 100 µM (inactive)	> 100 µM (inactive)	> 100 µM (inactive)	> 100 µM (inactive)	> 100 µM (inactive)	> 100 µM (inactive)	> 100 µM (inactive)	> 100 µM (inactive)	> 100 µM (inactive)	> 100 µM (inactive)	–	–	–
CN(CC(=O)O)S(=O)(=O)c1ccc(F)cc1	> 100 µM (inactive)	> 100 µM (inactive)	> 100 µM (inactive)	> 100 µM (inactive)	> 100 µM (inactive)	–	> 100 µM (inactive)	–	–	> 100 µM (inactive)	> 100 µM (inactive)	> 100 µM (inactive)	> 100 µM (inactive)	> 100 µM (inactive)	> 100 µM (inactive)	> 100 µM (inactive)	> 100 µM (inactive)	–
COc1cc(C2C(C(=O)Nc3cc(F)c(F)cc3F)=C(C)NC(C)=C2C(=O)Nc2cc(F)c(F)cc2F)ccc1O	22.5 µM (inactive)	15 µM (inactive)	16.3 µM (inactive)	19.4 µM (inactive)	24.7 µM (inactive)	–	24.6 µM (inactive)	12.8 µM (inactive)	–	21.3 µM (inactive)	14 µM (inactive)	–	26.7 µM (inactive)	15.2 µM (inactive)	17.7 µM (inactive)	17.1 µM (inactive)	14.3 µM (inactive)	23.6 µM (inactive)
Cc1ccc(-c2c(C#N)c(-c3ccc(Cl)cc3)c(C#N)c(=O)n2NS(=O)(=O)c2ccc(C)cc2)cc1	14 µM (inactive)	26.3 µM (inactive)	–	35 µM (inactive)	20.8 µM (inactive)	20.5 µM (inactive)	26.4 µM (inactive)	19.5 µM (inactive)	–	24 µM (inactive)	20.7 µM (inactive)	18 µM (inactive)	42.4 µM (inactive)	21.6 µM (inactive)	39.4 µM (inactive)	–	–	39.8 µM (inactive)
Cc1cc(Cl)ccc1N1C(=O)C(=O)C(c2nc3ccccc3o2)C(=O)C1=O	> 100 µM (inactive)	> 100 µM (inactive)	–	> 100 µM (inactive)	> 100 µM (inactive)	46.5 µM (inactive)	> 100 µM (inactive)	> 100 µM (inactive)	34 µM (inactive)	> 100 µM (inactive)	23.7 µM (inactive)	65 µM (inactive)	> 100 µM (inactive)	–	> 100 µM (inactive)	> 100 µM (inactive)	61.1 µM (inactive)	> 100 µM (inactive)
Cc1ccc(Cl)c(NC(=O)C(=O)C(C(=O)c2ccncc2)C2OC(=O)c3ccccc32)c1 (stereo unspecified)	–	> 100 µM (inactive)	> 100 µM (inactive)	> 100 µM (inactive)	> 100 µM (inactive)	> 100 µM (inactive)	> 100 µM (inactive)	> 100 µM (inactive)	> 100 µM (inactive)	> 100 µM (inactive)	0.512 µM (active)	> 100 µM (inactive)	> 100 µM (inactive)	> 100 µM (inactive)	> 100 µM (inactive)	> 100 µM (inactive)	–	> 100 µM (inactive)
COc1ccc2oc(-c3cc4cc(OC)ccc4o3)cc2c1	> 100 µM (inactive)	> 100 µM (inactive)	> 100 µM (inactive)	–	> 100 µM (inactive)	–	> 100 µM (inactive)	> 100 µM (inactive)	–	> 100 µM (inactive)	> 100 µM (inactive)	> 100 µM (inactive)	> 100 µM (inactive)	> 100 µM (inactive)	> 100 µM (inactive)	> 100 µM (inactive)	> 100 µM (inactive)	–
CC(=O)OC1COC(N2C(=O)C(=O)c3cc(Br)c([N+](=O)[O-])cc32)C(OC(C)=O)C1OC(C)=O (stereo unspecified)	> 100 µM (inactive)	59.2 µM (inactive)	> 100 µM (inactive)	–	71 µM (inactive)	77.3 µM (inactive)	> 100 µM (inactive)	> 100 µM (inactive)	29.1 µM (inactive)	> 100 µM (inactive)	37.6 µM (inactive)	49.3 µM (inactive)	> 100 µM (inactive)	30.2 µM (inactive)	> 100 µM (inactive)	55 µM (inactive)	48.2 µM (inactive)	> 100 µM (inactive)
COc1ccc(C2ON(c3ccccc3)CC=C2C)cc1 (stereo unspecified)	24 µM (inactive)	> 100 µM (inactive)	43.7 µM (inactive)	–	> 100 µM (inactive)	66.7 µM (inactive)	62.2 µM (inactive)	> 100 µM (inactive)	37.2 µM (inactive)	93.8 µM (inactive)	33.7 µM (inactive)	87.1 µM (inactive)	> 100 µM (inactive)	> 100 µM (inactive)	> 100 µM (inactive)	52.7 µM (inactive)	> 100 µM (inactive)	> 100 µM (inactive)
CCN(CC)c1ccc(/N=N/c2ccc([N+](=O)[O-])cc2OC(=O)/C=C/c2ccccc2)c(OC(=O)/C=C/c2ccccc2)c1	> 95.3 µM (inactive)	1.93 µM (inactive)	–	> 26.9 µM (inactive)	6.44 µM (inactive)	3.55 µM (inactive)	8.2 µM (inactive)	2.12 µM (inactive)	4.27 µM (inactive)	4.6 µM (inactive)	3.02 µM (inactive)	8.11 µM (inactive)	7.43 µM (inactive)	4.74 µM (inactive)	20.6 µM (inactive)	12.2 µM (inactive)	3.18 µM (inactive)	1.44 µM (inactive)
O=c1cccccc1NCCCNc1cccccc1=O	> 100 µM (inactive)	> 100 µM (inactive)	> 100 µM (inactive)	–	11.9 µM (inactive)	> 100 µM (inactive)	> 100 µM (inactive)	> 100 µM (inactive)	> 100 µM (inactive)	> 100 µM (inactive)	> 100 µM (inactive)	> 100 µM (inactive)	> 100 µM (inactive)	> 100 µM (inactive)	15.9 µM (inactive)	> 100 µM (inactive)	> 100 µM (inactive)	> 100 µM (inactive)
COc1ccc(-c2cc(=O)c3ccccc3o2)cc1N	37.2 µM (inactive)	25.7 µM (inactive)	44.8 µM (inactive)	37.4 µM (inactive)	> 100 µM (inactive)	32.8 µM (inactive)	49.9 µM (inactive)	20.5 µM (inactive)	–	41.7 µM (inactive)	28.6 µM (inactive)	25.8 µM (inactive)	> 100 µM (inactive)	34.6 µM (inactive)	84.7 µM (inactive)	38.5 µM (inactive)	31.8 µM (inactive)	> 100 µM (inactive)
CCc1ccccc1NC(=O)/C(CC(=O)c1c(C)[n+]([O-])c2ccccc2[n+]1[O-])=N\NS(=O)(=O)c1ccc(C)cc1	> 100 µM (inactive)	25.8 µM (inactive)	12.2 µM (inactive)	> 100 µM (inactive)	57.4 µM (inactive)	16.8 µM (inactive)	34.9 µM (inactive)	> 100 µM (inactive)	16.6 µM (inactive)	> 100 µM (inactive)	16.7 µM (inactive)	18.9 µM (inactive)	87.5 µM (inactive)	–	28.8 µM (inactive)	35.2 µM (inactive)	12.1 µM (inactive)	> 100 µM (inactive)
CC(C)(C)C1CCP(=O)(c2ccccc2)CC1 (stereo unspecified)	> 100 µM (inactive)	–	> 100 µM (inactive)	> 100 µM (inactive)	> 100 µM (inactive)	> 100 µM (inactive)	> 100 µM (inactive)	> 100 µM (inactive)	> 100 µM (inactive)	> 100 µM (inactive)	> 100 µM (inactive)	> 100 µM (inactive)	> 100 µM (inactive)	> 100 µM (inactive)	> 100 µM (inactive)	> 100 µM (inactive)	> 100 µM (inactive)	> 100 µM (inactive)
O=C1OC(c2ccccc2)C2CC3CC4(CCC3CN12)OCCO4 (stereo unspecified)	> 100 µM (inactive)	> 100 µM (inactive)	94 µM (inactive)	> 100 µM (inactive)	–	> 100 µM (inactive)	> 100 µM (inactive)	> 100 µM (inactive)	> 100 µM (inactive)	> 100 µM (inactive)	> 100 µM (inactive)	21.5 µM (inactive)	> 100 µM (inactive)	> 100 µM (inactive)	> 100 µM (inactive)	36.9 µM (inactive)	> 100 µM (inactive)	> 100 µM (inactive)
C[n+]1cccc(NC(=O)c2ccc(NC(=O)C34CCC(C(=O)Nc5ccc(C(=O)Nc6ccc[n+](C)c6)cc5)(CC3)CC4)cc2)c1	–	16.4 µM (inactive)	3.92 µM (inactive)	18 µM (inactive)	–	33.5 µM (inactive)	22.5 µM (inactive)	25.5 µM (inactive)	21.3 µM (inactive)	19.7 µM (inactive)	15.2 µM (inactive)	> 100 µM (inactive)	3.7 µM (inactive)	38.5 µM (inactive)	3.23 µM (inactive)	56.5 µM (inactive)	–	> 100 µM (inactive)
Cc1ccc(NC(=O)c2cccc([N+](=O)[O-])c2O)c([N+](=O)[O-])c1	–	17.9 µM (inactive)	8.69 µM (inactive)	16 µM (inactive)	14.9 µM (inactive)	9.38 µM (inactive)	21.6 µM (inactive)	20.5 µM (inactive)	–	15.1 µM (inactive)	> 100 µM (inactive)	12 µM (inactive)	12.7 µM (inactive)	11.5 µM (inactive)	16.5 µM (inactive)	13.6 µM (inactive)	18.9 µM (inactive)	3.29 µM (inactive)
